Results taken from ChEMBL document CHEMBL1152939, “p-Terphenyls from the fruiting bodies of Paxillus curtisii and their antioxidant properties” (Bioorg Med Chem, 2009).
Activity calls are given as the source filed them. The calls are words filed in the database; no cut-off is given here.

Tests used:
[1] = Antioxidant activity assessed as superoxide radical anion scavenging activity after 30 mins by xanthine/xanthine oxidase method; assay type: functional
Nucleic Acid = assay: Protection against ferrous and hydrogen peroxide-induced single strand breakage of pBR322 DNA at 50 uM after 30 mins using ethium bromide staining; conditions: Escherichia coli
[2] = Antioxidant activity assessed as ABTS radical scavenging activity after 6 mins by cation decolorization assay; assay type: functional
[3] = Antioxidant activity against ferrous and hydrogen peroxide-induced hydroxyl radical assessed inhibition of radical-mediated 2-deoxyribose damage at 100 uM after 45 mins; assay type: functional
[4] = tested on: Radical scavenging activity; assay: Antioxidant activity assessed as DPPH radical scavenging activity after 30 mins; assay type: functional

SMILES | IC50 [1] | Activity (Nucleic Acid) | IC50 [2] | Activity [3] | IC50 [4]
CC(=O)Oc1c(O)c(-c2ccc(O)cc2)c(OC(C)=O)c(O)c1-c1ccc(O)cc1 | > 500 µM | Active | 8.77 µM | Active | > 500 µM
CC(=O)N(O)CCCCCNC(=O)CCC(=O)N(O)CCCCCNC(=O)CCC(=O)N(O)CCCCCN |  | Active |  |  | 
COc1ccc(O)c(C(C)(C)C)c1.COc1ccc(O)cc1C(C)(C)C [BUTYLATED HYDROXYANISOLE] | > 500 µM | inactive | 10.7 µM |  | 83 µM
O=C(O)/C=C/c1ccc(O)c(O)c1 [CAFFEIC ACID] | 58 µM |  | 5.37 µM |  | 21.1 µM
CC(=O)Oc1c(OC(=O)C[C@@H](C)O)c(-c2ccc(O)cc2)c(OC(=O)CCc2ccccc2)c(OC(=O)C[C@@H](C)O)c1-c1ccc(O)cc1 [CURTISIAN E] | > 500 µM | Active | > 500 µM | Active | > 500 µM
CC(=O)O[C@H](C)CC(=O)Oc1c(O)c(-c2ccc(O)cc2)c(OC(=O)C[C@@H](C)O)c(O)c1-c1ccc(O)cc1 [CURTISIAN I] | > 500 µM | Active | 60.4 µM |  | > 500 µM
CC(=O)O[C@H](C)CC(=O)Oc1c(O)c(-c2ccc(O)cc2)c(OC(=O)CCc2ccccc2)c(O)c1-c1ccc(O)cc1 [CURTISIAN J] | > 500 µM | Active | 13.5 µM |  | > 500 µM
C[C@@H](O)CC(=O)Oc1c(O)c(-c2ccc(O)cc2)c(OC(=O)CCc2ccccc2)c(O)c1-c1ccc(O)cc1 [CURTISIAN K] | > 500 µM | Active | 11.3 µM | Active | > 500 µM
CC(=O)Oc1c(O)c(-c2ccc(O)cc2)c(OC(=O)C[C@@H](C)O)c(O)c1-c1ccc(O)cc1 [CURTISIAN L] | > 500 µM | Active | 18.6 µM |  | > 500 µM
CC(=O)O[C@H](C)CC(=O)Oc1c(O)c(-c2ccc(O)cc2)c(OC(=O)C[C@@H](C)OC(C)=O)c(O)c1-c1ccc(O)cc1 [CURTISIAN M] | > 500 µM | Active | 8.15 µM | Active | > 500 µM
CC(=O)Oc1c(O)c(-c2ccc(O)cc2)c(OC(=O)C[C@@H](C)OC(C)=O)c(O)c1-c1ccc(O)cc1 [CURTISIAN N] | > 500 µM | Active | 5.5 µM | Active | > 500 µM
CCCC(=O)Oc1c(O)c(-c2ccc(O)cc2)c(OC(C)=O)c(O)c1-c1ccc(O)cc1 [CURTISIAN O] | > 500 µM | Active | 7.11 µM | Active | > 500 µM
CC(=O)Oc1c(O)c(-c2ccc(O)cc2)c(OC(=O)CCc2ccccc2)c(O)c1-c1ccc(O)cc1 [CURTISIAN P] | > 500 µM | Active | 6.44 µM |  | > 500 µM
O=C(CCc1ccccc1)Oc1c(O)c(-c2ccc(O)cc2)c(OC(=O)CCc2ccccc2)c(O)c1-c1ccc(O)cc1 [CURTISIAN R] | > 500 µM | Active | 8.02 µM |  | > 500 µM
CCCC(=O)Oc1c(O)c(-c2ccc(O)cc2)c(OC(=O)CCc2ccccc2)c(O)c1-c1ccc(O)cc1 [CURTISIAN S] | > 500 µM | Active | 8.16 µM |  | > 500 µM
CC(=O)O[C@H](C)CC(=O)Oc1c(O)c(-c2ccc(O)cc2)c(OC(=O)c2ccccc2)c(O)c1-c1ccc(O)cc1 [CURTISIAN T] | > 500 µM | Active | 8.43 µM |  | > 500 µM
CC(=O)Oc1c(OC(=O)C[C@@H](C)O)c(-c2ccc(O)cc2)c(OC(C)=O)c(OC(=O)C[C@@H](C)O)c1-c1ccc(O)cc1 [CURTISIAN U] | > 500 µM | Active | > 500 µM |  | > 500 µM
CC(=O)Oc1c(OC(=O)CCc2ccccc2)c(-c2ccc(O)cc2)c(OC(=O)C[C@@H](C)O)c(OC(=O)C[C@@H](C)O)c1-c1ccc(O)cc1 [CURTISIAN V] | > 500 µM | Active | > 500 µM |  | > 500 µM
Cc1c(C)c2c(c(C)c1O)CCC(C)(C(=O)O)O2 (stereo not drawn) [TROLOX] | > 500 µM | Active | 7.91 µM |  | 33 µM
